Experiments:
Type in all cases: in vivo
[1] = test system: blackgrass (Alopecurus myosuroides); test: Test A postemergence; conditions: Alopecurus myosuroides, post-emergence, 240 h, Postemergence, read-out: Blackgrass plant response rating (0 to 100 scale)
In short: (§1)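 Visual injury, scored on a 0–100 scale relative to untreated controls, was recorded about 10 d after application. Treatments were a preemergence soil spray over planted seeds or a postemergence spray on plants at the one- to two-leaf stage, 2 to 10 cm tall, all in loam soil–sand blend in the greenhouse.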

[2] = test system: Galium (catchweed bedstraw, Galium aparine); test: Test A postemergence; conditions: Galium, post-emergence, 240 h, Postemergence, read-out: Galium plant response rating (0 to 100 scale)
In short: as §1

[3] = test system: pigweed (Amaranthus retroflexus); test: Test A postemergence; conditions: Amaranthus retroflexus, post-emergence, 240 h, Postemergence, read-out: Pigweed plant response rating (0 to 100 scale)
In short: as §1

[4] = test system: ragweed (common ragweed, Ambrosia elatior); test: Test A postemergence; conditions: Ambrosia artemisiifolia, post-emergence, 240 h, Postemergence, read-out: Ragweed plant response rating (0 to 100 scale)
In short: as §1

[5] = test system: giant foxtail (Setaria faberii); test: Test A postemergence; conditions: Setaria faberi, post-emergence, 240 h, Postemergence, read-out: Foxtail, Giant plant response rating (0 to 100 scale)
In short: as §1

[6] = test system: barnyardgrass (Echinochloa crus-galli); test: Test A postemergence; conditions: Echinochloa crus-galli, post-emergence, 240 h, Postemergence
In short: as §1

corn (Zea mays) = test: Test A postemergence; conditions: Zea mays, post-emergence, 240 h, Postemergence, read-out: Corn plant response rating (0 to 100 scale)
In short: as §1

Kochia (Kochia scoparia) [7] = test: Test A postemergence; conditions: Bassia scoparia, post-emergence, 240 h, Postemergence, read-out: Kochia plant response rating (0 to 100 scale)
In short: as §1

[8] = test system: wheat (Triticum aestivum); test: Test A postemergence; conditions: Triticum aestivum, post-emergence, 240 h, Postemergence, read-out: Wheat plant response rating (0 to 100 scale)
In short: as §1

[9] = test system: ryegrass, Italian (Italian ryegrass, Lolium multiflorum); test: Test A postemergence; conditions: Lolium multiflorum, post-emergence, 240 h, Postemergence, read-out: Ryegrass, Italian plant response rating (0 to 100 scale)
In short: as §1

[10] = test system: pigweed (Amaranthus retroflexus); test: Test A preemergence; conditions: Amaranthus retroflexus, pre-emergence, 240 h, Preemergence
[11] = test system: ragweed (common ragweed, Ambrosia elatior); test: Test A preemergence; conditions: Ambrosia artemisiifolia, pre-emergence, 240 h, Preemergence
In short: as §1

[12] = test system: barnyardgrass (Echinochloa crus-galli); test: Test A preemergence; conditions: Echinochloa crus-galli, pre-emergence, 240 h, Preemergence
In short: as §1

Kochia (Kochia scoparia) [13] = test: Test A preemergence; conditions: Bassia scoparia, pre-emergence, 240 h, Preemergence
In short: as §1

[14] = test system: ryegrass, Italian (Italian ryegrass, Lolium multiflorum); test: Test A preemergence; conditions: Lolium multiflorum, pre-emergence, 240 h, Preemergence
In short: as §1

[15] = 125 g ai/ha, visual rating about 10 d after treatment
[16] = 31 g ai/ha, 0 is no effect, 100 is complete control

CN1C[C@H](c2csc3c2CCC(F)(F)C3)[C@@H](C(=O)Nc2ccccc2S(C)(=O)=O)C1=O (racemic) [Compound 1367]
pest or weed control at 125 g/ha [1, 15]: 0% | pest or weed control at 31 g/ha [1, 16]: 0% | pest or weed control at 125 g/ha [2, 15]: 0% | pest or weed control at 31 g/ha [2, 16]: 0% | pest or weed control at 125 g/ha [3, 15]: 20% | pest or weed control at 31 g/ha [3, 16]: 0% | pest or weed control at 125 g/ha [4, 15]: 0% | pest or weed control at 31 g/ha [4, 16]: 0% | pest or weed control at 125 g/ha [5, 15]: 30% | pest or weed control at 31 g/ha [5, 16]: 0% | pest or weed control at 125 g/ha ([6]; 125 g ai/ha, visual rating about 10 d after treatment, read-out: Barnyardgrass plant response rating (0 to 100 scale, 0 no effect, 100 complete control)): 30% | pest or weed control at 31 g/ha ([6]; 31 g ai/ha, 0 is no effect, 100 is complete control, read-out: Barnyardgrass plant response rating (0 to 100 scale)): 0% | plant injury at 125 g/ha (corn (Zea mays); [15]): 0% | plant injury at 31 g/ha (corn (Zea mays); [16]): 0% | pest or weed control at 125 g/ha (Kochia (Kochia scoparia) [7]; [15]): 0% | pest or weed control at 31 g/ha (Kochia (Kochia scoparia) [7]; [16]): 0% | plant injury at 125 g/ha [8, 15]: 0% | plant injury at 31 g/ha [8, 16]: 0% | pest or weed control at 125 g/ha [9, 15]: 0% | pest or weed control at 31 g/ha [9, 16]: 0% | pest or weed control at 31 g/ha ([10]; 31 g ai/ha, 0 to 100 scale where 0 is no effect and 100 is complete control, read-out: Pigweed plant response rating): 0% | pest or weed control at 125 g/ha ([10]; 125 g ai/ha, 0 to 100 scale (0 no effect, 100 complete control), read-out: Plant response rating, Pigweed): 0% | pest or weed control at 31 g/ha ([11]; 31 g ai/ha, 0 to 100 scale where 0 is no effect and 100 is complete control, read-out: Ragweed plant response rating): 0% | pest or weed control at 125 g/ha ([11]; 125 g ai/ha, 0 to 100 scale (0 no effect, 100 complete control), read-out: Plant response rating, Ragweed): 0% | pest or weed control at 31 g/ha ([12]; 31 g ai/ha, 0 to 100 scale where 0 is no effect and 100 is complete control, read-out: Barnyardgrass plant response rating): 0% | pest or weed control at 125 g/ha ([12]; 125 g ai/ha, 0 to 100 scale (0 no effect, 100 complete control), read-out: Plant response rating, Barnyardgrass): 80% | pest or weed control at 31 g/ha (Kochia (Kochia scoparia) [13]; 31 g ai/ha, 0 to 100 scale where 0 is no effect and 100 is complete control, read-out: Kochia plant response rating): 0% | pest or weed control at 125 g/ha (Kochia (Kochia scoparia) [13]; 125 g ai/ha, 0 to 100 scale (0 no effect, 100 complete control), read-out: Plant response rating, Kochia): 0% | pest or weed control at 31 g/ha ([14]; 31 g ai/ha, 0 to 100 scale where 0 is no effect and 100 is complete control, read-out: Ryegrass, Italian plant response rating): 0% | pest or weed control at 125 g/ha ([14]; 125 g ai/ha, 0 to 100 scale (0 no effect, 100 complete control), read-out: Plant response rating, Ryegrass, Italian): 0%

Source: US12077503B2, “Substituted cyclic amides and their use as herbicides” (FMC CORPORATION, priority 2015, dated 2024)
